Key:
[1] = system: Rac1-dependent ruffle formation in NIH3T3 cells; experiment: Rac activator-induced membrane ruffling (actin staining) in fibroblasts; format: cell-based; conditions: fibroblasts, dose-dependent inhibition
Description: (§1) Cell culture, transfection and actin staining. NIH3T3 cells grew up in DMEM (Gibco; Invitrogen) containing 10% foetal bovine serum, 100 units/mL penicillin and 100 μg/mL streptomycin at 37° C. and 5% CO2. The culture medium was changed every 72 hours.
After treatments, fibroblasts were fixed with 4% paraformaldehyde in PBS, permeabilized in PBS 0.5% Triton X-100, and incubated with 130 μg/mL of FITC-conjugated phalloidin (Sigma) to visualize F-actin. After staining, images were captured by a fluorescence microscope (Nikon). The actin cytoskeleton organization was analyzed to observe Rac1-dependent ruffle formation.

[2] = target: T1, Rac-GTP (Rac1 activity) in NIH3T3 cells (Mus musculus, UniProt P63001); experiment: Rac activation: active Rac immunoprecipitation and immunoblot of Rac-GTP in fibroblasts stimulated by a Rac activator; format: cell-based; conditions: pre-incubated 1 h
T1 construct: endogenous in cells; host or cells: NIH3T3
Description: as §1
Analysis of Rac1 activity. In NIH3T3 cells lysates, Rac1 activity was evaluated by active Rac immunoprecipitation using anti-Rac-GTP antibody (26903, NewEast Biosciences). The precipitated active Rac was subjected to SDS-PAGE and detected by immunoblot with anti-Rac1 antibody (BD biosciences).

[3] = system: fibroblast adhesion; experiment: Cell adhesion assay using impedance technology; format: cell-based; conditions: fibroblasts, 10 μm
Description: Cell adhesion assay using impedance technology. Cells (10000/well) were seeded in a 96 well plate microtiter xCELLigence assay plate (E-Plate) (ACEA Biosciences Inc.) and placed on the Real-time xCELLigence Cell Analyzer (Roche Applied Science) platform at 37° C. to measure the “cell index” every 5 min for a period of 6 hours. The cell index unit is defined as (Rn−Rb)/15. Rn is the cell electrode impedance of the well when it contains cells. Rb is the background impedance of the well with the media alone.

[4] = target: T2, RAC1 (Homo sapiens, UniProt P63000)
[5] = target: T2, RAC1; conditions: compared with NSC23766

| SMILES | melting point [°C] | other results |
| --- | --- | --- |
| COc1ccc(NS(=O)(=O)c2ccc([N+](=O)[O-])cc2)c(OC)c1 [Example 1, N-(2,4-dimethoxyphenyl)-4-nitrobenzenesulfonamide] | 161 | – |
| COc1ccc(OC)c(NS(=O)(=O)c2ccc(NC(=O)CC[S+]([O-])c3ccc(C)cc3)cc2)c1 (stereo not drawn) [(24), N-(4-(N-(2,5-dimethoxyphenyl)sulfamoyl)phenyl)-3-(p-tolylsulfinyl)propanamide] | 148.1 | – |
| CCN(CC)CCCC(C)Nc1nc(C)cc(Nc2ccc3nc(C)cc(N)c3c2)n1 (stereo not drawn) [NSC23766, reference compound] | – | IC50 [1]: 2600 nM; Rac activation (Rac-GTP level) by a Rac activator [2]: prevented; adhesion rate of the cells [3]: slow down |
| COc1ccc(OC)c(NS(=O)(=O)c2ccc(NC(=O)CCS(=O)(=O)c3ccc(C)cc3)cc2)c1 [(25), N-(4-(N-(2,5-dimethoxyphenyl)sulfamoyl)phenyl)-3-tosyl-propanamide] | 180.3 | – |
| Nc1ccc(S(=O)(=O)Nc2ccccc2F)cc1 [Example 10] | 190 | – |
| COc1ccccc1NS(=O)(=O)c1ccc(NC(=O)CSc2ccc(C)cc2)cc1 [(20), N-(4-(N-(2-methoxyphenyl)sulfamoyl)phenyl)-2-(p-tolylthio) acetamide] | 169.3 | IC50 [4]: 1 nM; Relative activity (NSC23766) [5]: > |
| COc1cccc(NS(=O)(=O)c2ccc([N+](=O)[O-])cc2)c1 [(21), N-(3-methoxyphenyl)-4-nitrobenzenesulfonamide] | 119.4 | – |
| C#CC(=O)Nc1ccc(S(=O)(=O)Nc2cc(OC)ccc2OC)cc1 [(27), N-(4-(N-(2,5-dimethoxyphenyl)sulfamoyl)phenyl) propiolamide] | 200 | – |
| COc1ccccc1NS(=O)(=O)c1ccc(N)cc1 [(18), 4-amino-N-(2-methoxyphenyl)-benzenesulfonamide] | – | IC50 [4]: 1 nM; Relative activity (NSC23766) [5]: > |
| COc1ccc(NS(=O)(=O)c2ccc(NC(=O)CCSc3ccc(C)cc3)cc2)c(OC)c1 [(1), N-(4-(N-(2,4-dimethoxyphenyl)sulfamoyl)phenyl)-3-(p-tolylthio)propanamide] | – | IC50 [4]: 30 nM; Relative activity (NSC23766) [5]: > |
| C=CC(=O)Nc1ccc(S(=O)(=O)Nc2cc(OC)ccc2OC)cc1 [(5), N-(4-(N-(2,5-dimethoxyphenyl)sulfamoyl)phenyl)acrylamide] | 126 | IC50 [4]: 0.1 nM; Relative activity (NSC23766) [5]: > |
| Cc1ccc(SCCC(=O)Nc2ccc(S(=O)(=O)Nc3ccccc3F)cc2)cc1 [(30), N-(4-(N-(2-fluorophenyl)sulfamoyl)phenyl)-3-(p-tolylthio) propanamide] | 162 | – |
| COc1ccc(OC)c(NS(=O)(=O)c2ccc(N)cc2)c1 [(10), 4-amino-N-(2,5-dimethoxyphenyl)benzenesulfonamide] | 126 | – |
| COc1ccc(OC)c(NS(=O)(=O)c2ccc(NC(=O)CCCSc3ccc(C)cc3)cc2)c1 [(8)] | 153 | – |
| COc1ccccc1NS(=O)(=O)c1ccc(NC(=O)CCSc2ccc(C)cc2)cc1 [(19), N-(4-(N-(2-methoxyphenyl)sulfamoyl)phenyl)-3-(p-tolylthio) propanamide] | 143.5 | IC50 [4]: 1 nM; Relative activity (NSC23766) [5]: > |
| COc1ccc(OC)c(N(C)S(=O)(=O)c2ccc(NC(=O)CCSc3ccc(C)cc3)cc2)c1 [(26), N-(4-(N-(2,5-dimethoxyphenyl)-N-methylsulfamoyl)phenyl)-3-(p-tolylthio)propanamide] | 48 | – |
| O=[N+]([O-])c1ccc(S(=O)(=O)Nc2ccccc2F)cc1 [Example 5] | 166 | – |
| COc1ccc(OC)c(NS(=O)(=O)c2ccc([N+](=O)[O-])cc2)c1 [(9), N-(2,5-dimethoxyphenyl)-4-nitrobenzenesulfonamide] | 165 | – |
| COc1ccc(OC)c(NC(=O)c2ccc(NC(=O)CCSc3ccc(C)cc3)cc2)c1 [(7), N-(2,5-dimethoxyphenyl)-4-(3-(p-tolylthio)propanamido) benzamide] | 153 | – |
| COc1ccc(OC)c(NS(=O)(=O)c2ccc(NC(=O)C#C[Si](C)(C)C)cc2)c1 | 84 | – |
| COc1ccc(OC)c(NS(=O)(=O)c2ccc(NC(=O)CCl)cc2)c1 [(31), 2-chloro-N-(4-(N-(2,5-dimethoxyphenyl)sulfamoyl)phenyl) acetamide] | 190 | – |
| COc1ccc(OC)c(NS(=O)(=O)c2ccc(NC(=O)CCCc3ccc(C)cc3)cc2)c1 [(3), N-(4-(N-(2,5-dimethoxyphenyl)sulfamoyl)phenyl)-4-(p-tolyl) butanamide] | 126 | – |
| COc1ccc(NS(=O)(=O)c2ccc(N)cc2)c(OC)c1 [Example 6, 4-amino-N-(2,4-dimethoxyphenyl)benzenesulfonamide] | 115 | – |
| COc1cccc(NS(=O)(=O)c2ccc(N)cc2)c1 [(22)] | – | IC50 [4]: 1 nM; Relative activity (NSC23766) [5]: > |
| COc1ccc(OC)c(NS(=O)(=O)c2ccc(NC(=O)CCOc3ccc(C)cc3)cc2)c1 [(6), N-(4-(N-(2,5-dimethoxyphenyl)sulfamoyl)phenyl)-3-(p-tolyloxy)propanamide] | 145 | IC50 [4]: 1 nM; Relative activity (NSC23766) [5]: > |
| CCC(=O)Nc1ccc(S(=O)(=O)Nc2cc(OC)ccc2OC)cc1 [(11), N-(4-(N-(2,5-dimethoxyphenyl)sulfamoyl)phenyl) propionamide] | 170 | – |
| COc1ccccc1NS(=O)(=O)c1ccc([N+](=O)[O-])cc1 [(17), N-(2-methoxyphenyl)-4-nitrobenzenesulfonamide] | 156.5 | IC50 [4]: 1 nM; Relative activity (NSC23766) [5]: > |
| COc1ccc(OC)c(NS(=O)(=O)c2ccc(NC(=O)CSc3ccc(C)cc3)cc2)c1 [(4)] | 126 | – |
| C=CC(=O)Nc1ccc(S(=O)(=O)N(C(=O)C=C)c2cc(OC)ccc2OC)cc1 [(16), N-acryloyl-N′-(4-(N-(2,5-dimethoxyphenyl)sulfamoyl)phenyl) acrylamide] | 220.8 | – |
| COc1cccc(NS(=O)(=O)c2ccc(NC(=O)CCSc3ccc(C)cc3)cc2)c1 [(23), N-(4-(N-(3-methoxyphenyl)sulfamoyl)phenyl)-3-(p-tolylthio) propanamide] | 156.8 | – |

Reference: patent US11607419B2, “Inhibitors of RAC1 and uses thereof for inducing bronchodilatation” (INSTITUT NATIONAL DE LA SANTE ET DE LA RECHERCHE MEDICALE …, priority 2017, dated 2023)
